For this assay, the system named is BDF1 mice, P388 leukemia ip, median survival T/C. The experiment in a line: NCI In Vivo Anticancer Drug Screen. Data for tumor model P388 Leukemia (intraperitoneal) in B6D2F1 (BDF1) mice. As to conditions: endpoint: median survival time, higher = longer survival. Put shortly: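 Reported as T/C, where T is the survival measurement in dosed animals and C the same measurement in vehicle controls.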

Setting [1] is: dose: 25.0 mg/kg/injection, schedule: Q04DX003 (ip), vehicle: saline with Tween-80.
The mark [2] stands for this setting: dose: 100.0 mg/kg/injection, schedule: Q04DX003 (ip), vehicle: saline with Tween-80.
Where [3] appears, read: dose: 200.0 mg/kg/injection, schedule: Q01DX009 (ip), vehicle: saline with Tween-80.
The mark [4] stands for this setting: dose: 400.0 mg/kg/injection, schedule: Q01DX009 (ip), vehicle: saline with Tween-80.
Where [5] appears, read: dose: 50.0 mg/kg/injection, schedule: Q01DX009 (ip), vehicle: saline with Tween-80.
Where [6] appears, read: dose: 100.0 mg/kg/injection, schedule: Q01DX009 (ip), vehicle: saline with Tween-80.
Setting [7] is: dose: 50.0 mg/kg/injection, schedule: Q01DX009 (ip), vehicle: saline.
Where [8] appears, read: dose: 100.0 mg/kg/injection, schedule: Q01DX009 (ip), vehicle: saline.
Setting [9] is: dose: 200.0 mg/kg/injection, schedule: Q01DX009 (ip), vehicle: saline.
Where [10] appears, read: dose: 200.0 mg/kg/injection, schedule: Q04DX003 (ip), vehicle: saline with Tween-80.
Where [11] appears, read: dose: 400.0 mg/kg/injection, schedule: Q04DX003 (ip), vehicle: saline with Tween-80.
Where [12] appears, read: dose: 100.0 mg/kg/injection, schedule: Q04DX003 (ip), vehicle: saline.

Values joined by “and” are separate entries in the source; they are usually repeats but may differ in a detail not shown here. Equal entries are not always repeated. Toxic doses and inconclusive results are not listed.

Regarding `CC1CCCC(NC(=O)N(CCCl)N=O)C1` (configuration not stated), the T/C is 115 % of control (dose: 0.25 mg/kg/injection, schedule: Q04DX003 (ip), vehicle: saline with Tween-80); 100 % of control (dose: 0.5 mg/kg/injection, schedule: Q04DX003 (ip), vehicle: saline with Tween-80); 95 % of control (dose: 1.0 mg/kg/injection, schedule: Q04DX003 (ip), vehicle: saline with Tween-80); 240 % of control (dose: 16.5 mg/kg/injection, schedule: Q04DX003 (ip), vehicle: saline with Tween-80); 259 % of control under setting [1]; 272 % of control (dose: 37.5 mg/kg/injection, schedule: Q04DX003 (ip), vehicle: saline with Tween-80). Also, the T/C under setting [2] was 177 % of control.

As for `COC(=O)c1ccc(N)c(C(Sc2ccccc2)c2ccccc2)c1` (configuration not stated), the T/C (dose: 50.0 mg/kg/injection, schedule: Q04DX002 (ip), vehicle: saline with Tween-80) is 98 % of control; the T/C (dose: 100.0 mg/kg/injection, schedule: Q04DX002 (ip), vehicle: saline with Tween-80) was 90 % of control; the T/C (dose: 200.0 mg/kg/injection, schedule: Q04DX002 (ip), vehicle: saline with Tween-80) was 99 % of control.

Turning to `CCC(CO)NC(=O)/C=C/c1ccccc1` (configuration not stated), the T/C is 91 % of control under setting [3] and 91 % of control under setting [4].

On to `S=C(Nc1ccccn1)Nc1ccccn1`, for which the T/C was 99 % of control and 106 % of control (dose: 25.0 mg/kg/injection, schedule: Q01DX009 (ip), vehicle: Klucel (hydroxypropylcellulose) (HPC)); 99 % of control and 118 % of control (dose: 50.0 mg/kg/injection, schedule: Q01DX009 (ip), vehicle: Klucel (hydroxypropylcellulose) (HPC)); 89 % of control and 116 % of control (dose: 100.0 mg/kg/injection, schedule: Q01DX009 (ip), vehicle: Klucel (hydroxypropylcellulose) (HPC)); 98 % of control (dose: 200.0 mg/kg/injection, schedule: Q01DX009 (ip), vehicle: Klucel (hydroxypropylcellulose) (HPC)).

Turning to `CCN(CC)c1cc(=S)c2c(ccc3ccccc32)o1`, the T/C is, setting by setting: under setting [5], 100 % of control; under setting [6], 106 % of control; under setting [3], 103 % of control.

For `COc1c2ccoc2nc2c(OC)c3c(cc12)OCO3`, the T/C is, setting by setting: (dose: 12.5 mg/kg/injection, schedule: Q01DX009 (ip), vehicle: saline) 109 % of control; (dose: 25.0 mg/kg/injection, schedule: Q01DX009 (ip), vehicle: saline) 107 % of control; under setting [7], 109 % of control.

Regarding `O=C(O)CNC(CSCc1ccccc1)CSCc1ccccc1`, the T/C is 101 % of control under setting [1]; 93 % of control under setting [7]; 106 % of control (dose: 50.0 mg/kg/injection, schedule: Q04DX003 (ip), vehicle: saline with Tween-80); 112 % of control under setting [8]; 98 % of control under setting [2]; 111 % of control under setting [9]. The T/C was 97 % of control under setting [10]; 116 % of control (dose: 400.0 mg/kg/injection, schedule: Q01DX009 (ip), vehicle: saline); 97 % of control under setting [11].

As to `CC1CCC(C)C1NC1=NCCO1` (configuration not stated), the T/C runs as follows: (dose: 6.25 mg/kg/injection, schedule: Q01DX009 (ip), vehicle: saline with Tween-80) 109 % of control; (dose: 12.5 mg/kg/injection, schedule: Q01DX009 (ip), vehicle: saline with Tween-80) 100 % of control; (dose: 25.0 mg/kg/injection, schedule: Q01DX009 (ip), vehicle: saline with Tween-80) 104 % of control.

In the case of `C=CC1CN2CCC1CC2C(O)c1ccnc2ccc(OC)cc12` (configuration not stated), the T/C is 120 % of control under setting [7], 95 % of control under setting [8] and 100 % of control under setting [9].

For the compound `O=C1C2C3CC4C2C(=O)C2C1C3C42` (configuration not stated), the T/C under setting [12] was 90 % of control; the T/C (dose: 200.0 mg/kg/injection, schedule: Q04DX003 (ip), vehicle: saline) was 102 % of control; the T/C (dose: 400.0 mg/kg/injection, schedule: Q04DX003 (ip), vehicle: saline) is 90 % of control.

`ClC(Cl)(Cl)c1cccc(C(Cl)(Cl)Cl)c1`: the T/C was 115 % of control (dose: 100.0 mg/kg/injection, schedule: Q04DX003 (ip), vehicle: Klucel (hydroxypropylcellulose) (HPC)); 120 % of control (dose: 200.0 mg/kg/injection, schedule: Q04DX003 (ip), vehicle: Klucel (hydroxypropylcellulose) (HPC)); 90 % of control (dose: 266.0 mg/kg/injection, schedule: Q04DX003 (ip), vehicle: Klucel (hydroxypropylcellulose) (HPC)).

For the compound `C=C1C(=O)O[C@@H]2C[C@@H](C)[C@@H]3C=CC(=O)[C@@]3(C)[C@@H](O)[C@H]12`, the T/C is, setting by setting: (dose: 0.88 mg/kg/injection, schedule: Q01DX009 (ip), vehicle: saline) 109 % of control; (dose: 1.3 mg/kg/injection, schedule: Q01DX009 (ip), vehicle: saline) 113 % of control; (dose: 2.0 mg/kg/injection, schedule: Q01DX009 (ip), vehicle: saline + alcohol) 116 % of control; (dose: 4.0 mg/kg/injection, schedule: Q01DX010 (ip), vehicle: other) 116 % of control; (dose: 5.0 mg/kg/injection, schedule: Q01DX009 (ip), vehicle: saline + alcohol) 116 % of control; (dose: 5.0 mg/kg/injection, schedule: Q01DX009 (ip), vehicle: saline with Tween-80) 109 % of control. Further, the T/C reads like this: (dose: 5.0 mg/kg/injection, schedule: Q01DX010 (ip), vehicle: other) 112 % of control; (dose: 6.0 mg/kg/injection, schedule: Q01DX010 (ip), vehicle: other) 116 % of control; (dose: 8.0 mg/kg/injection, schedule: Q01DX009 (ip), vehicle: alcohol) 163 % of control; (dose: 8.0 mg/kg/injection, schedule: Q01DX009 (ip), vehicle: saline + alcohol) 168 % of control; (dose: 8.0 mg/kg/injection, schedule: Q01DX010 (ip), vehicle: other) 116 % of control.

Regarding `[NH-]CC([NH-])=O.[NH-]CC([NH-])=O.[Ni]`, the T/C is 105 % of control (dose: 5.0 mg/kg/injection, schedule: Q01DX009 (ip), vehicle: water); 105 % of control (dose: 10.0 mg/kg/injection, schedule: Q01DX009 (ip), vehicle: water); 95 % of control (dose: 12.5 mg/kg/injection, schedule: Q04DX003 (ip), vehicle: water); 109 % of control (dose: 25.0 mg/kg/injection, schedule: Q04DX003 (ip), vehicle: water).

With `O=c1c2cc3nc4ccccn4c(=O)c3cc2nc2ccccn12`, the T/C under setting [5] is 91 % of control, the T/C under setting [6] was 86 % of control and the T/C under setting [3] was 91 % of control.

Take `CN(C)CC(=O)c1ccc(O)c(O)c1`: the T/C (dose: 300.0 mg/kg/injection, schedule: Q01DX010 (ip), vehicle: saline) was 150 % of control.

For `Nc1ccc2ccccc2c1N=Nc1ccc(C(O)C(N)CO)cc1` (configuration not stated), the T/C runs as follows: (dose: 6.25 mg/kg/injection, schedule: Q01DX009 (ip), vehicle: saline sonified) 100 % of control; (dose: 12.5 mg/kg/injection, schedule: Q01DX009 (ip), vehicle: saline sonified) 112 % of control; (dose: 25.0 mg/kg/injection, schedule: Q01DX009 (ip), vehicle: saline sonified) 100 % of control.

For the compound `COC1/C=C/OC2(C)Oc3c(C)c(O)c4c(O)c(c(/C=N/NC5CCCCCCCCCCCCCC5)c(O)c4c3C2=O)NC(=O)/C(C)=C\C=C\C(C)C(O)C(C)C(O)C(C)C(OC(C)=O)C1C` (configuration not stated), the T/C was 100 % of control under setting [6]; 100 % of control under setting [2]; 95 % of control under setting [3]; 90 % of control under setting [10]; 95 % of control under setting [4]; 90 % of control under setting [11].

Consider `O=c1[nH]c2cc(Cl)ccc2c(CCl)c1Cl`, for which the T/C by setting is: (dose: 25.0 mg/kg/injection, schedule: Q04DX003 (ip), vehicle: saline) 109 % of control; (dose: 50.0 mg/kg/injection, schedule: Q04DX003 (ip), vehicle: saline) 104 % of control; (dose: 56.25 mg/kg/injection, schedule: Q01DX001 (ip), vehicle: saline with Tween-80) 109 % of control; under setting [12], 100 % of control; (dose: 112.5 mg/kg/injection, schedule: Q01DX001 (ip), vehicle: saline with Tween-80) 113 % of control; (dose: 225.0 mg/kg/injection, schedule: Q01DX001 (ip), vehicle: saline with Tween-80) 109 % of control.

Values taken from PubChem BioAssay AID328 (DTP/NCI, 2004).
